The source made the active and inactive calls.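 Rule for the calls: active = mean IC50 at or below 20 µM; inactive = the rest.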
Target: Polyadenylate-binding protein 1 (Homo sapiens) (UniProt P11940)
Experiment: PABP1 MLLE–PAM2 interaction inhibitors, dose response, miRNA deadenylation inhibitor project, biochemical, fluorescence polarization, Cy5-PAM2 peptide, secondary (AID 602260)
Settings: GST-Mlle / Cy5-PAM2 peptide fluorescence polarization

Chain of Polyadenylate-binding protein 1 (Homo sapiens) (P11940 whole entry, looked up): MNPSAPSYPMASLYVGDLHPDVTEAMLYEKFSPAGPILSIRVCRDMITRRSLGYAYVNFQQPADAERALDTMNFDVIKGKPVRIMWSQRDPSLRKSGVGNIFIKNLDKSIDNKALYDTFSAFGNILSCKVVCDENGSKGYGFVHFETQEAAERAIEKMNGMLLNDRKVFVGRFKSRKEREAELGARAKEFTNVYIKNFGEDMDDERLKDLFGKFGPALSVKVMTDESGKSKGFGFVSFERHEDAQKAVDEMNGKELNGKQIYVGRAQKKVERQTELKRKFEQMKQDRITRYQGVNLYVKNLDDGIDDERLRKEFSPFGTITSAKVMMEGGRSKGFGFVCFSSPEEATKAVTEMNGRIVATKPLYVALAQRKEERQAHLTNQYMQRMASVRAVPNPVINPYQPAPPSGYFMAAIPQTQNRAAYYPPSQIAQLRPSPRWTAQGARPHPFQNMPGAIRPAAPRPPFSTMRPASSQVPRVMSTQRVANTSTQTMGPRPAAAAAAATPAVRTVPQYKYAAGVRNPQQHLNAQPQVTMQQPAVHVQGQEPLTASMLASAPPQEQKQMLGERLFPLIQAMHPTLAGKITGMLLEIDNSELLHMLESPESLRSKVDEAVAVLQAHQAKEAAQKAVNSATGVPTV

Row | IC50 | SMILES
1 | inactive | COc1ccc(NC(=O)Nc2ccc([N+](=O)[O-])cc2)cn1
2 | inactive | CCOC(=O)c1c(/N=C/c2cccc([N+](=O)[O-])c2O)sc(C)c1C
3 | > 66 µM (inactive) | C[c-]1[c-](C)[c-](C)[c-](C)[c-]1C.[Fe].c1cc2nccc(N3CCCC3)[c-]2c1 (stereo not drawn)
